According to publication PMC12720098, “Prolintane analogs as hybrid monoamine transporter ligands: Structural determinants and species differences” (The Journal of Biological Chemistry, 2025):
Where two headings read alike, the source gives them in different places.

Tests used:
[1] = biological target: T1, hDAT (Homo sapiens, UniProt Q01959); assay: Batch release assay ([3H]MPP+) in transfected HEK293 cells; format: cell-based; conditions: % efflux of total uptake, compounds approximately at IC50 concentration
T1 construct: expressed in transfected cells
Experimental: (§1) Batch release assays were performed as described previously ([44]). In brief, HEK293 cells stably expressing monoamine transporters were seeded similar to the procedure used for uptake inhibition assays. A day after seeding cells were pre-loaded with 50 μl/well 0.015 μM [^3H]MPP^+ (hDAT, hNET), or 0.08 μM [^3H]5-HT (hSERT) for 20 min at 37 °C. Then cells were washed four times for 3 to 4 min each and further incubated with KHB or KHB + monensin. After 10 min of incubation, two (screening) to four (full traces; hSERT) 2 min incubations were performed to establish a baseline release without substance. […] Each fraction was transferred to an empty well in the 96-well plate. For screening, a known inhibitor (hDAT, hNET: 50 μM GBR12909) and releaser (hDAT, hNET: 10 μM S-(+)-amphetamine) were used as controls. Ultima Gold XR scintillation cocktail was added to the remaining cells, and each well contained a release fraction. The counted radioactivity in the respective fraction was expressed as a percentage of total radioactivity at the start of the fraction.
(§2) Half-maximal inhibitory concentrations (IC50) were obtained from fitting a sigmoidal dose–response ( Y=Bottom+Top−Bottom/1+10^((LogIC50−X)·HillSlope) ) in GraphPad Prism 10.3.1 (GraphPad Software Inc.). Uptake inhibition data were evaluated by one-way ANOVA followed by Tukey's multiple comparisons test. Release data were analyzed using a two-way ANOVA (batch release) or a mixed-effects model with Geisser-Greenhouse correction (time-dependent traces) employing Šidák correction for comparing differences between compounds with or without the addition of monensin.

[2] = biological target: T2, hNET (Homo sapiens, UniProt P23975); assay: as above; format: cell-based; conditions: % efflux of total uptake, compounds approximately at IC50 concentration
T2 construct: expressed in transfected cells
Experimental: as §1, §2

[3] = biological target: T3, rNET (Rattus norvegicus, UniProt Q63380); assay: Uptake inhibition assay ([3H]norepinephrine) in rat brain synaptosomes; format: biochemical
T3 construct: As a means to evaluate transporter activity of prolintane analogs in native tissue preparation; from tissue; host or cells: rat brain synaptosomes (whole brain minus caudate and cerebellum)
Experimental: (§3) Rats were killed by CO2 narcosis and decapitated, then synaptosomes were prepared from brains using standard procedures. In brief, synaptosomes were prepared from caudate tissue for rat DAT (rDAT) assays, or from whole brain minus caudate and cerebellum for rat NET (rNET) and rat SERT (rSERT) assays. Brain tissue was homogenized in ice-cold 10% sucrose followed by centrifugation at 1000g for 10 min. The resulting supernatant containing crude synaptosomes was kept on ice until use in uptake or release procedures. Uptake inhibition and release assays were carried out as previously described ([62], [63]).
(§4) For uptake inhibition assays, 5 nM [^3H]dopamine, 10 nM [^3H]norepinephrine, or 5 nM [^3H]5-HT was used as the radiolabeled transmitter for rDAT, rNET, or rSERT, respectively. To optimize uptake for a single transporter, unlabeled blockers were included that prevented uptake of [^3H]transmitter by competing transporters: 50 nM GBR 12935 was added to NET and SERT assays to block DAT, 100 nM nomifensine was added to SERT assays to block NET. Uptake assays were initiated by adding 100 μl of tissue to 900 μl Krebs-phosphate buffer (126 mM NaCl, 2.4 mM KCl, 0.83 mM CaCl2, 0.8 mM MgCl2, 0.5 mM KH2PO4, 0.5 mM Na2SO4, 11.1 mM glucose, 0.05 mM pargyline, 1 mg/ml bovine serum albumin, and 1 mg/ml ascorbic acid, pH 7.4) containing test drug and [^3H]transmitter. Uptake assays were terminated by rapid vacuum filtration, and retained radioactivity was quantified with liquid scintillation counting.
(§5) Effects of test drugs on release and uptake inhibition were analyzed by nonlinear regression using GraphPad Prism 9 (GraphPad Scientific, San Diego, CA, USA). Concentration–response values for the uptake inhibition and release were fit to the equation, Y(x)=Ymin+Ymax−Ymin/1+10^((LogP50−LogX)·n) , where x is the concentration of the compound tested, Y(x) is the response measured, Ymax is the maximal response, P50 is either IC50 (the concentration that yields half-maximal uptake inhibition response) or EC50 (the concentration that yields half-maximal release response), and n is the Hill slope parameter.

[4] = biological target: T2, hNET; assay: Uptake inhibition assay ([3H]MPP+) in transfected HEK293 cells; format: cell-based
Experimental: (§6) HEK293 cells stably expressing human monoamine transporters hSERT, hDAT or hNET were seeded into poly-D-lysine (PDL) coated 96-well plates with a density of approximately 36,000 cells per well 1 day prior to experiments. A day after seeding, the cell medium was replaced with 200 μl Krebs-HEPES-buffer (KHB; 120 mM NaCl, 3 mM KCl, 2 mM CaCl2·2H2O, 2 mM MgCl2·6H2O, 20 mM D-glucose, pH = 7.3). The test drugs were initially dissolved in Milli-Q H2O or dimethyl sulfoxide (DMSO) at a concentration of 10 to 100 mM. Then, cells were treated with the respective concentration of the test drug diluted in KHB for 5 min as a pre-incubation step. Subsequently, in the uptake step, the solution was replaced with 50 μl/well diluted drug solution and tritiated substrate (hDAT: 0.1 μM [^3H]DA; hNET: 0.02 μM [^3H]MPP^+; hSERT: 0.1 μM [^3H]5-HT) for 1 min (hDAT, hSERT) or 3 min (hNET). After incubation, cells were immediately washed with 200 μl KHB to stop uptake. Uptake was indirectly measured by quantifying beta emission with liquid scintillation counting (Wallac 1450 MicroBeta TriLux Liquid Scintillation Counter & Lumi; GMI). Therefore, 200 μl Ultima Gold XR scintillation cocktail (PerkinElmer, MA, USA) was added to each well.
as §2

[5] = biological target: T4, rDAT (Rattus norvegicus, UniProt P23977); assay: Uptake inhibition assay ([3H]dopamine) in rat brain synaptosomes; format: biochemical; conditions: for DAT/SERT ratio: rat isoform (r), 1/DAT IC50 / 1/SERT IC50
T4 construct: As a means to evaluate transporter activity of prolintane analogs in native tissue preparation; from tissue; host or cells: rat caudate synaptosomes
Experimental: as §3, §4, §5

[6] = biological target: T1, hDAT; assay: Uptake inhibition assay ([3H]DA) in transfected HEK293 cells; format: cell-based; conditions: for DAT/SERT ratio: human isoform (h), 1/DAT IC50 / 1/SERT IC50
Experimental: as §6, §2

[7] = biological target: rSERT (Rattus norvegicus, UniProt P31652); assay: Uptake inhibition assay ([3H]5-HT) in rat brain synaptosomes; format: biochemical; design: As a means to evaluate transporter activity of prolintane analogs in native tissue preparation; from tissue; host or cells: rat brain synaptosomes (whole brain minus caudate and cerebellum)
Experimental: as §3, §4, §5

T4 sequence (P23977 whole entry, canonical isoform): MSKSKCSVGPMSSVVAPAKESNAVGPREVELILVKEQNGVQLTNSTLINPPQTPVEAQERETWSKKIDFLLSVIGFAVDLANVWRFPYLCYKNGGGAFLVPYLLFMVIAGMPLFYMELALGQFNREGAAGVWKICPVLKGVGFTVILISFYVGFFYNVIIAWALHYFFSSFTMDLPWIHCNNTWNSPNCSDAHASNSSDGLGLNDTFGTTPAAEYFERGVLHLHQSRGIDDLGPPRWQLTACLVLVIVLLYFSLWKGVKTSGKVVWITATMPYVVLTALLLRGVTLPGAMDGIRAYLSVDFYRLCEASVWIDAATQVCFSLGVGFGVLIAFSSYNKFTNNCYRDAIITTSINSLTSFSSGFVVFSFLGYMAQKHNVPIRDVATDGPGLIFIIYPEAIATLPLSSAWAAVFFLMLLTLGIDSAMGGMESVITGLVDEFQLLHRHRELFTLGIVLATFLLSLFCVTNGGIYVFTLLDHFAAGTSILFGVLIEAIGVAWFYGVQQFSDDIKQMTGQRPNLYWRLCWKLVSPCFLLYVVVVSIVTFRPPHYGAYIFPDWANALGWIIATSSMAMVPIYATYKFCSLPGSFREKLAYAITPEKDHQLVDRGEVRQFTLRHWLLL
T2 sequence (P23975 whole entry): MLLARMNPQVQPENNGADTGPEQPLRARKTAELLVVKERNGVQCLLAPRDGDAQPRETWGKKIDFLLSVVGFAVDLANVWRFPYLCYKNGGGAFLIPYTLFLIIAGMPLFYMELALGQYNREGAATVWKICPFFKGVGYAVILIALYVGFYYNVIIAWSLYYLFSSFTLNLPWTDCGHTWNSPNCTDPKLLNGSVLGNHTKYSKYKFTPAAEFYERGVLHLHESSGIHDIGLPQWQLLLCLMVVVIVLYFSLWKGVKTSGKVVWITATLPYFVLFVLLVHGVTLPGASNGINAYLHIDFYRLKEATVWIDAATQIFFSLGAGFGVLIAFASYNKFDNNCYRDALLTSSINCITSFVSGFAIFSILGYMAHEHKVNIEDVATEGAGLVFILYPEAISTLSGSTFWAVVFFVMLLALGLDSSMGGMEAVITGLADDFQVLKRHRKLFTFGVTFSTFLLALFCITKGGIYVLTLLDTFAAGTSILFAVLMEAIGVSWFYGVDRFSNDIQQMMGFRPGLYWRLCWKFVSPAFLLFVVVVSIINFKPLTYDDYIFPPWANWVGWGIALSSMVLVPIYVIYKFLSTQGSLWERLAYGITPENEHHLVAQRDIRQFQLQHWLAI
T1 sequence (Q01959 whole entry): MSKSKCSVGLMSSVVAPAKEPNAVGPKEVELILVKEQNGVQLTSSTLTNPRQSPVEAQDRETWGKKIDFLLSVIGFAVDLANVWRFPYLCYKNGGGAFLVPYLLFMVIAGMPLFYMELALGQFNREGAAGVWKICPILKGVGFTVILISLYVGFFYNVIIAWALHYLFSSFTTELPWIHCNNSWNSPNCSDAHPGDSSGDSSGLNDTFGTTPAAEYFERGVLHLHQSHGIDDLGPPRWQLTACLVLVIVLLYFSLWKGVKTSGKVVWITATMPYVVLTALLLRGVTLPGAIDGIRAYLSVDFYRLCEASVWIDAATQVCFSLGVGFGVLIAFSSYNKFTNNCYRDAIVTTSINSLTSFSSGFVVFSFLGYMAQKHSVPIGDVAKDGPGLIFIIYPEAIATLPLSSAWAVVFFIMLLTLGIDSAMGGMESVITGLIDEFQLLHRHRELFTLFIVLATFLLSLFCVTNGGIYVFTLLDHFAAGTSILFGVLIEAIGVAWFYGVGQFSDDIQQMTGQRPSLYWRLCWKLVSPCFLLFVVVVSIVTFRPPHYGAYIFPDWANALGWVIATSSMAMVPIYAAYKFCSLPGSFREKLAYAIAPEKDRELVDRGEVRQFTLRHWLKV
T3 sequence (Q63380 1-617): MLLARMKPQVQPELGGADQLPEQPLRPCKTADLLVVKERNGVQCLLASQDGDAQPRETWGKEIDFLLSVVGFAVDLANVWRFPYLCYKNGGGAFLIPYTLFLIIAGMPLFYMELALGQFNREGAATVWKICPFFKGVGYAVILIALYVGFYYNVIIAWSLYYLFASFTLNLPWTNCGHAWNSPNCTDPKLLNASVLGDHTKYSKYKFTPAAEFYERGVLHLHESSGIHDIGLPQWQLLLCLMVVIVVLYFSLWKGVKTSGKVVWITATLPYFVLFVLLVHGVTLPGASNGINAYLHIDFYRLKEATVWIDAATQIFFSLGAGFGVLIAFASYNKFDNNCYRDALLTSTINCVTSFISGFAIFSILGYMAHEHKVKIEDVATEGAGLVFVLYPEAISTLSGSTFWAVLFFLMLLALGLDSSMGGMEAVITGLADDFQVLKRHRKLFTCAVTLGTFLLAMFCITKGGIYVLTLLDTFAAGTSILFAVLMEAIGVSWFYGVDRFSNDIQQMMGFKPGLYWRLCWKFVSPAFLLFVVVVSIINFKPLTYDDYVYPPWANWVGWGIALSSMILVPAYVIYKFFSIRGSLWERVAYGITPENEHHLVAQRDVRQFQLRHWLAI
Chain of rSERT (P31652 whole entry): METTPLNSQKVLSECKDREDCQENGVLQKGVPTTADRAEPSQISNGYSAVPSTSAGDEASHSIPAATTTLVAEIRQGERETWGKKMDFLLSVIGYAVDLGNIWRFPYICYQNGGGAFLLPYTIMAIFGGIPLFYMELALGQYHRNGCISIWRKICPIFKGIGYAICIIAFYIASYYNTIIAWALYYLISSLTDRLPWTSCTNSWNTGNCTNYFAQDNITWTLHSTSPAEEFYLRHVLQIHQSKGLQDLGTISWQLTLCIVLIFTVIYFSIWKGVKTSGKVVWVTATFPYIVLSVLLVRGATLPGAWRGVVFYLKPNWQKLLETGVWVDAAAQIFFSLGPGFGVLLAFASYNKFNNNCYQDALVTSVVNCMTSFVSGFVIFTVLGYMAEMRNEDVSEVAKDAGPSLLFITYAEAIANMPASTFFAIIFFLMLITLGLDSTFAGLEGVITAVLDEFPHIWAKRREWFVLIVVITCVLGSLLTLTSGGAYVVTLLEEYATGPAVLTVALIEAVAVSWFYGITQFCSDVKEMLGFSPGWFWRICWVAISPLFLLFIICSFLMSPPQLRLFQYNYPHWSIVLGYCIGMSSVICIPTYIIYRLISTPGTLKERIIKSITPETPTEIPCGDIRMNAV

SMILES | hDAT-mediated efflux, predicted (LS) mean diff, No mon - Mon [1] | hNET-mediated efflux, predicted (LS) mean diff, No mon - Mon [2] | IC50 [3] [nM] | IC50 [4] [nM] | IC50 [5] [nM] | DAT/SERT ratio [5] | IC50 [6] [nM] | DAT/SERT ratio [6] | IC50 [7] [nM] | IC50 ([7]; read-out: [3H]5-HT uptake SERT IC50, rat isoform (r), rat brain synaptosomes, mean ± SD) [nM] | inhibitory potency at hDAT compared to pyrovalerone ([6]; pyrovalerone value ref 53) | IC50 at rSERT, fold weaker than at rDAT and rNET ([7]; rat brain synaptosomes)
CCCC(Cc1ccccc1F)N1CCCC1 (centres unmarked) [2-Fluoroprolintane, 1-[1-(2-fluorophenyl)pentan-2-yl]pyrrolidine] | -0.6425 | 0.3867 | 63 ± 6 | 102 ± 22 | 117 ± 10 | 19 | 109 ± 19 | 323 | 2230 ± 152 |  |  | 
CCCC(Cc1ccccc1C)N1CCCC1 (centres unmarked) [2-Methylprolintane, 1-[1-(2-methylphenyl)pentan-2-yl]pyrrolidine] | -0.04333 | -0.3417 | 138 ± 13 | 119 ± 49 | 324 ± 25 | 1 | 185 ± 65 | 23 |  | 323 ± 280 |  | 
CCCC(Cc1cccc(F)c1)N1CCCC1 (centres unmarked) [3-Fluoroprolintane, 1-[1-(3-fluorophenyl)pentan-2-yl]pyrrolidine] | 0.0325 | 0.3678 | 28 ± 3 | 35 ± 11 | 58 ± 4 | 9 | 64 ± 20 | 210 | 521 ± 116 |  |  | 
CCCC(Cc1cccc(C)c1)N1CCCC1 (centres unmarked) [3-Methylprolintane, 1-[1-(3-methylphenyl)pentan-2-yl]pyrrolidine] | -0.702 | -0.8634 | 62 ± 9 | 139 ± 33 | 111 ± 8 | 1.25 | 56 ± 11 | 53 | 139 ± 14 |  |  | 
CCCC(Cc1ccc(F)cc1)N1CCCC1 (centres unmarked) [4-Fluoroprolintane, 1-[1-(4-fluorophenyl)pentan-2-yl]pyrrolidine] | -0.2875 | 0.3845 | 217 ± 21 | 307 ± 97 | 213 ± 13 | 4.2 | 109 ± 41 | 179 | 884 ± 78 |  |  | 
CCCC(Cc1ccc(C)cc1)N1CCCC1 (centres unmarked) [4-Methylprolintane, 1-[1-(4-methylphenyl)pentan-2-yl]pyrrolidine] | -0.8967 | -0.3451 | 45 ± 5 | 72 ± 14 | 37 ± 3 | 1.9 | 16 ± 2 | 159 | 72 ± 5 |  | four-fold greater | 
CCCC(Cc1ccccc1)N1CCCC1 (centres unmarked) [Prolintane, 1-(1-phenylpentan-2-yl)pyrrolidine] | 0.1383 | -0.3446 | 39 ± 4 | 59 ± 7 | 61 ± 6 | 38 | 43 ± 24 | 670 | 2320 ± 169 |  |  | about 50 fold
